Results published in patent publication US11214564B2, “Compounds with thymine skeleton for use in medicine” (TECHNISCHE UNIVERSITÄT DRESDEN, priority 2019, dated 2022).

Tests used:
[1] = system: RPMI 8226 multiple myeloma cells; assay: Chemoresistance assay, RPMI 8226 cells with Bortezomib; type: cell-based, human; details: for resensitization of chemoresistant RPMI 8226 multiple myeloma cells to Bortezomib (relative cell number): rising Bortezomib 0.5-1 nM or 0.75-1.3 nM, BVDU 30 μM, compounds 1 μM or lower, FIG. 1a
Text: (§1) In a chemoresistance assay, a HSP27 dependent resistance to a cytostatic drug is induced in cultured cells by slowly increasing the dose of the cytostatic over several cell passages. This approach is valid for multiple cell types and cytostatic drugs and allowed us to test compounds according to the invention for their ability to inhibit HSP27 and reestablish susceptibility of the resistant cells to the cancer drug.
RPM-8226 cells, a human multiple myeloma cell line, were obtained from DSMZ (Leibniz Institute DSMZ-German Collection of Microorganisms and Cell Cultures). Cells were grown in RPMI 1640 medium (FG 1235; Biochrom AG, Berlin, Germany) supplemented with 10% (v/v) heat-inactivated fetal bovine serum in a humidified atmosphere containing 5% CO2 at 37° C. Logarithmically growing cells were seeded at a density of 100,000 cells/ml and incubated with Bortezomib (Velcade) in combination with or without test compounds. Cells were periodically counted using C-Chip Neubauer-improved counting chambers (Peqlab) and serially passaged. Cells were maintained below 1,000,000 cells/ml and typically passaged when the cell count reached 800,000 cells/ml. The starting dose of Bortezomib was typically 0.1 ng/ml and the concentration of Bortezomib was increased with each passage, e.g.: 1st passage, 0.1 ng/ml Bortezomib, 2nd passage 0.2 ng/ml Bortezomib, 3rd passage 0.3 ng/ml Bortezomib, etc.
Over 3-4 passages with increasing concentration of Bortezomib, cells begin to show resistance and finally grow at the same rate as untreated cells.
(§2) The addition of HSP27 inhibitors prevents development of chemoresistance and reestablishes the killing effect of Bortezomib. Cell numbers are determined at the end of the final passage to compare their growth rates.
(§3) As a reference compound, BVDU was tested at a concentration of 30 μM as previously described (Heinrich et al. (2016)). The compounds according to the invention were tested at a concentration of 1 μM or lower (see below). Test compounds were added at the start of the experiment and again after each passage and their concentrations remained unchanged throughout. […] The appropriate non-toxic dose of the test compound was determined in a dose-finding experiment beforehand.
FIG. 1a: Results of chemoresistance assay showing the resensitization of chemoresistant RPMI 8226 multiple myeloma cells to Bortezomib after treatment with test compounds. RPMI-8226 cells (100,000) were seeded and cultured in the presence of rising concentrations of Bortezomib (0.5-1 nM or 0.75-1.3 nM) and HSP27 inhibitor, and passaged every 4-7 days. Cell counts were taken after the last passage at the highest concentration of Bortezomib and relative cell number determined. Test compounds were BVDU, and Compound 12 and Compound 4, according to the invention.

[2] = system: 2950-K9 mouse colon carcinoma cells; assay: Chemoresistance assay, 2950-K9 cells with 5-Fluorouracil; type: cell-based; details: rising 5-FU 12-20 nM; BVDU 30 μM, compounds 1 μM or lower; FIG. 1b
Text: as §1, §2, §3
FIG. 1b: Results of chemoresistance assay showing the resensitization of chemoresistant 2950-K9 mouse colon carcinoma cells to the drug 5-Fluorouracil (5-FU) after treatment with test compounds. 2950-K9 cells (100,000) were seeded and cultured in the presence of rising concentrations of 5-FU (12-20 nM) and HSP27 inhibitor, and passaged every 4-7 days. Cell counts were taken after the last passage at the highest concentration of 5-FU and relative cell number determined. Test compounds were BVDU, and Compound 5, Compound 12 and Compound 4, according to the invention.

HSP27 = HSP27 (Homo sapiens, UniProt P04792); assay: Aggregation assay: HSP27 chaperone activity on heat-induced aggregation of citrate synthase; type: biochemical; details: compound 10 μM; 1.44 μM CS, 481 nM HSP27, 43° C., 500 nm
Chain of HSP27 (P04792 whole entry): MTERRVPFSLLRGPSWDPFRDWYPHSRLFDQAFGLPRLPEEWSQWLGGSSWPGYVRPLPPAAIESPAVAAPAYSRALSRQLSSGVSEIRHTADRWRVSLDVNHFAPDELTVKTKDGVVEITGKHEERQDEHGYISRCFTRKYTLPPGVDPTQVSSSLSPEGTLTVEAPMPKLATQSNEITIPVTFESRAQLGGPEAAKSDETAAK
Procedure: To test how small molecules affect the chaperone activity of HSP27, misfolding and aggregation of citrate synthase (CS), a well-known in vitro client protein of HSP27, was measured. Citrate synthase misfolds and aggregates when exposed to heat shock at 43° C. This heat denaturation is prevented or delayed in the presence of HSP27 (CS+HSP27) (Jakob et al. (1993)). […] The samples were incubated at 43° C. and the aggregation behavior of CS was monitored in a spectrometer (PerkinElmer LS55) at a wavelength of 500 nm. Substances inhibiting HSP27's chaperone activity lead to continued denaturation of the client protein and its aggregation in solution. This inhibition correlates with the strength of the interaction between HSP27 and the test substance, which is related to its binding efficiency.
In the reference experiment BVDU (CS+HSP27+BVDU) was tested at a concentration of 750 μM as previously described (Heinrich et al. (2016)).
The compounds according to the invention were tested at a concentration of 10 μM.

aggregation value related to the value from reference experiment (CS + HSP27 + BVDU), which was set at 1.0 (HSP27)	Compound	resensitization of chemoresistant RPMI 8226 multiple myeloma cells to Bortezomib (relative cell number) [1]	resensitization of chemoresistant 2950-K9 mouse colon carcinoma cells to 5-Fluorouracil (relative cell number) [2]	influence on cell growth of compound alone (control without cytostatic) ([1]; cells treated with only BVDU (30 μM) or test compound (1 μM or lower))
1.39	O=C(Cc1cccc(-c2ccc(Cl)c(Cl)c2)c1)Nc1ccc(-n2ccc(=O)[nH]c2=O)cc1 [Compound 4, 2-(3′,4′-dichloro-[1,1′-biphenyl]-3-yl)-N-(4-(2,4-dioxo-3,4-dihydro-pyrimidin-1(2H)-yl)phenyl) acetamide]	resensitization	resensitization	
	O=c1[nH]c(=O)n([C@H]2C[C@H](O)[C@@H](CO)O2)cc1/C=C/Br [BVDU, (E)-5-(2-bromovinyl)-2′-deoxyuridine, reference compound]	resensitization	resensitization	did not influence cell growth
1.39	O=C(Cc1cccc(-c2ccc(Cl)cc2Cl)c1)Nc1ccc(-n2ccc(=O)[nH]c2=O)cc1 [Compound 5, 2-(2′,4′-dichloro-[1,1′-biphenyl]-3-yl)-N-(4-(2,4-dioxo-3,4-dihydro-pyrimidin-1(2H)-yl)phenyl) acetamide]		resensitization	
1.57	O=C(Cc1cccc(-c2ccc(Cl)c(Cl)c2)c1)Nc1ccc(-n2cc(F)c(=O)[nH]c2=O)cc1 [Compound 12, 2-(3′,4′-dichloro-[1,1′-biphenyl]-3-yl)-N-(4-(5-fluoro-2,4-dioxo-3,4-dihydro-pyrimidin-1(2H)-yl)phenyl) acetamide]	resensitization	resensitization	
